pKi: −log10 of the molar value. Where “and” joins values, the source holds several entries; their conditions need not be identical. Equal values may be shown once. Read-outs that look alike come from different tables or passages of the source. Marks after values point to notes of the source that are not given here.
Columns and labels:
mouse uPA = assay: Mouse specific uPA ELISA of xenograft tumour homogenates; assay type: in vivo; details: versus tumours from mock-treated animals, 125 mg/kg BB-94 daily
Excerpt: Tumours from untreated control mice and from mice receiving BB94 were homogenized and assayed for mouse uPA content using a mouse specific uPA ELISA.

plg^+/+ mice [1] = details: 2.5 mg i.p. daily, 5 mice
plg^+/+ mice [2] = assay: Wound healing, 20 mm full thickness skin incision; assay type: in vivo, mouse; details: for time after which all wounds were healed: aprotinin 13,000 KIU and/or tranexamic acid 10 mg per day in three i.p. injections, untreated 17 days
Excerpt: (§1) Four groups of mice were set up, consisting of 12 plg^−/− mice (group 1), another 12 plg^−/− mice (group 2), 12 plg^+/+ mice (group 3) and another 12 plg^+/+ mice (group 4). All mice were then wounded with a standardised 20 mm long, full thickness skin incision on the back.
(§2) Each day after wounding the length of the open wounds was carefully measured and recorded. The time taken for each skin wound to completely close was also noted.
(§3) The time taken for each skin wound to completely close was also noted.
as §3, §3

[3] = target: angiotensin converting enzyme (ACE) (Homo sapiens, UniProt P12821); details: very weak inhibition; a million-fold higher than for the metalloproteases; cited from earlier work
plg^+/+ mice [4] = assay: Post-lactational mammary gland involution (gland weight); assay type: in vivo, mouse
Excerpt: (§4) After mice had given birth, the litter was taken away from the mother and adjusted to eight pups, adding pups from other mothers if necessary in order to provide a constant feeding load on each mother. Lactation and feeding with the eight pups were allowed to proceed for 7-8 days, at which time the litter was removed (day 1).

plg^−/− mice [5] = assay: as above; assay type: in vivo, mouse
Excerpt: as §4

Lewis lung carcinoma = tested on: Lewis lung carcinoma
Description: Four groups of 17 mice were injected subcutaneously with Lewis lung carcinoma tissue mince (approx. 1.0×10^6 cells). The first group (CON) were treated only with buffered vehicle. The second group (TA/AP) was treated i.p. three times each day with a mixture of tranexamic acid (TA) and aprotinin (AP), so that the total dosage was 10 mg TA and 13,000 KIU AP per day per mouse. […] The tumour growth in the mice was monitored every 2-3 days by careful measurement with callipers of the longest and shortest axes of the palpable tumours, and the calculated volume was plotted as a function of time. The growth rate of the tumours was followed until death and the survival of mice in the four groups was analyzed by a Kaplan-Meier plot. Histological sections from the primary murine Lewis Lung carcinoma were analyzed by in situ hybridization for the expression of stromelysin-1 and gelatinase-B.

wild-type mice = assay: Keratinocyte migration distance in skin wounds (morphometry); assay type: in vivo, mouse; details: 100 mg/kg daily for 7 days after skin wounding
Description: (§5) Keratinocyte migration. […] 18-20 sections of wound tissue from each group of mice were then analyzed microscopically, and the keratinocyte migration distance along the base of the epidermal outgrowth from the wound edge to the tip of the wedge (see Rømer et al., FIG. 2) was measured blindly by computer-assisted morphometry.

Plg-deficient mice = assay: as above; assay type: in vivo, mouse; details: 100 mg/kg daily for 7 days after skin wounding
Description: as §5

stromelysin-1 (MMP-3) = stromelysin-1 (MMP-3) (Homo sapiens, UniProt P08254); details: cited from earlier work
[6] = tested on: gelatinase B, collagenase-3, stromelysin-1, gelatinase A mRNA; assay: MMP mRNA expression in wound tissue by in situ hybridization; assay type: in vivo, mouse; details: wild-type and Plg-deficient mice, 100 mg/kg daily, versus mock treated
Description: In parallel experiments, the mice were sacrificed and tissue sections prepared from the wound site. The tissue sections were analyzed for expression of various metalloproteases by in situ hybridisation and for matrix content by staining.
In situ hybridization. […] The mouse macrophage elastase expression system was investigated with a single probe, while the expression of all other metalloproteases were investigated with two different non-overlapping probes, which in all cases gave identical results.

plasmin = plasmin (Homo sapiens, UniProt P00747); details: very weak inhibition; a million-fold higher than for the metalloproteases; cited from earlier work
plg^−/− mice [7] = tested on: plg^−/− mice
Excerpt: In the evening, female plg^−/− mice (8-10 weeks old) were placed in cages together with male plg^−/− mice of proven potency.

plg^−/− mice [8] = assay: Wound healing, 20 mm full thickness skin incision; assay type: in vivo, mouse; details: Galardin 2.5 mg i.p. once daily
Excerpt: as §1, with “The methods used followed those described by Rømer et al, 1996. Four” for “Four”
as §2

plg^+/+ mice [9] = details: Galardin 2.5 mg, aprotinin 13,000 KIU and tranexamic acid 10 mg per day i.p.
Description: In the evening, wild-type (plg^+/+) female mice were placed together with plg^+/+ male mice of proven potency. Bach morning the females were closely examined for the characteristic vaginal “plugs” formed after mating, and the mated females were removed and allocated to four groups.

plg^+/+ mice [10] = assay: Post-partum uterine involution (uterus weight); assay type: in vivo, mouse
Excerpt: (§6) Treatment was continued to 4 days post-partum and on the fifth day post-partum the mice were sacrificed and the uteri removed, dissected free of adhering fatty tissue, and blotted dry before weighing.

plg^−/− mice [11] = assay: Post-partum uterine involution (uterus weight); assay type: in vivo, mouse
Excerpt: as §6

[12] = Biological half-life of aprotinin in blood plasma; assay type: in vivo, mouse; details: single i.p. injection of 2.1 mg
Description: Fifteen mice (weighing approx. 25 g each) were injected i.p. with 0.75 ml of aprotinin solution (20,000 KIU/ml; approx. 2.1 mg) and at time intervals of 0.5, 1.5, 3.0, 6.0 and 24 h thereafter three mice were sacrificed and blood collected by cardiac puncture into citrate anti-coagulant tubes. Each plasma sample was ultrafiltrated through a 20,000 MW cut-off membrane, and the aprotinin level in the ultrafiltrate was determined by inhibition of the calorimetric activity of a standard trypsin solution.

[13] = 2.5 mg/mouse i.p. daily from weaning day 2, weighed day 5, single animals
[14] = 2.5 mg/mouse i.p. daily, weaning day 5

Chain of plasmin (P00747 581-810 limits assumed, species assumed): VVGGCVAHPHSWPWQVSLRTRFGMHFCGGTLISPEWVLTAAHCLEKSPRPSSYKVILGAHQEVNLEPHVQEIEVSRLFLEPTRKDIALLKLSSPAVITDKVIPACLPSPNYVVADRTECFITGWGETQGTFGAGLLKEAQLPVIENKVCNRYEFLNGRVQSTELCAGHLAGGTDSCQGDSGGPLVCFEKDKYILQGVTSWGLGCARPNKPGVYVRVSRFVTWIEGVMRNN
Chain of plasmin (P00747 97-580 partner limits assumed, species assumed): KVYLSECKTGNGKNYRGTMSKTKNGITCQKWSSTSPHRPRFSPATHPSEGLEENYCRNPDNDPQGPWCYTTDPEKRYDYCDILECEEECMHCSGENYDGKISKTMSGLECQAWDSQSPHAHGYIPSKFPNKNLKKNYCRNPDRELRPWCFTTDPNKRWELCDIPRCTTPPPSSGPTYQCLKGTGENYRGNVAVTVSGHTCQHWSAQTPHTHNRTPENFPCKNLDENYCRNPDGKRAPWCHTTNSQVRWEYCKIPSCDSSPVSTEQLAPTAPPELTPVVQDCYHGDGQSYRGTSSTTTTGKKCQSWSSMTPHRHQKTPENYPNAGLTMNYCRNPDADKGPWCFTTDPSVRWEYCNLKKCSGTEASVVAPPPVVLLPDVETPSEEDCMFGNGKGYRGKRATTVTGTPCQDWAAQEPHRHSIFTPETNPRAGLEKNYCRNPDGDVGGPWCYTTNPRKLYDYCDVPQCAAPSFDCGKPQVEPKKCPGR
Chain of angiotensin converting enzyme (ACE) (P12821 30-1306, species assumed): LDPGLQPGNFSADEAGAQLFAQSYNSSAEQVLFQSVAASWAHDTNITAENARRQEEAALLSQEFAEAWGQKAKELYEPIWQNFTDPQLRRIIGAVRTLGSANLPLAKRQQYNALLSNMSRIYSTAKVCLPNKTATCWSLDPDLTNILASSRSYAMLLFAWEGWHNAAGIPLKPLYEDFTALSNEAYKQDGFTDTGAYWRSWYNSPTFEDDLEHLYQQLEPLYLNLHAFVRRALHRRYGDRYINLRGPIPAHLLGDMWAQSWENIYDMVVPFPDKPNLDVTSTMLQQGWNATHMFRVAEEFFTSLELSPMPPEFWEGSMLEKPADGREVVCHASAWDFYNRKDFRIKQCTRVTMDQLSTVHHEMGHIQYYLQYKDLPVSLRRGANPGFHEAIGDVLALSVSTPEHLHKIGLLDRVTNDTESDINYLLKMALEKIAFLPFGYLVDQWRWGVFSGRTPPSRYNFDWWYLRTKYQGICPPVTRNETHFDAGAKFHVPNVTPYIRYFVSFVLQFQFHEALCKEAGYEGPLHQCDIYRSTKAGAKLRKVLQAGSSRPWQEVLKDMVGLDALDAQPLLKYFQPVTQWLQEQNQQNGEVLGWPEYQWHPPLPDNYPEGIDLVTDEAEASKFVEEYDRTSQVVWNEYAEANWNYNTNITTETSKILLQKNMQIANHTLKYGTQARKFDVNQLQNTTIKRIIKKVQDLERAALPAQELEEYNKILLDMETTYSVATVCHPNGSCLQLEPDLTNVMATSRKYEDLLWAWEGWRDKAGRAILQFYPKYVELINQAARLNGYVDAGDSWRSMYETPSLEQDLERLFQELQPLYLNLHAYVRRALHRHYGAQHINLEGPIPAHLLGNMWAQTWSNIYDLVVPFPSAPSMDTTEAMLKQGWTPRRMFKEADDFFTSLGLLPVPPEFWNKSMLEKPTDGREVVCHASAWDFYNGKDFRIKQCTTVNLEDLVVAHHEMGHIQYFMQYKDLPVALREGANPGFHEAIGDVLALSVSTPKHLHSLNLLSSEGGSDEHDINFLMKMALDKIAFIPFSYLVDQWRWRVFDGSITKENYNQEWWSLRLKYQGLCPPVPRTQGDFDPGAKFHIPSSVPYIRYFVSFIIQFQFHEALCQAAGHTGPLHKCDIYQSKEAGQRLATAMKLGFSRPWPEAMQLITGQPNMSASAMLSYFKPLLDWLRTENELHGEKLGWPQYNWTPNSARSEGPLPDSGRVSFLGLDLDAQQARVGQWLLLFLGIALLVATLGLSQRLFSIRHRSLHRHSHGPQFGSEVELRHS
Chain of stromelysin-1 (MMP-3) (P08254 100-477, species assumed): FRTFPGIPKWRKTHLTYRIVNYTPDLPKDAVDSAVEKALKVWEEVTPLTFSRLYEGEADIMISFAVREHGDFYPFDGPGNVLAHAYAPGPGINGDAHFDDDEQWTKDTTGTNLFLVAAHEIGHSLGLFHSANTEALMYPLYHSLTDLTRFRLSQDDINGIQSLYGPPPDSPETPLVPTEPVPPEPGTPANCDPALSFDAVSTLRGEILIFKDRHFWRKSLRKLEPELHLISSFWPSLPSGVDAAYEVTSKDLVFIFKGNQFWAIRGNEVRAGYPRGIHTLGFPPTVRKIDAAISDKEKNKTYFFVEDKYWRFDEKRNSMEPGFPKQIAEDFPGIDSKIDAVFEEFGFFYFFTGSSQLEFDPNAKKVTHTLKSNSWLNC

## CNC(=O)[C@H](Cc1ccccc1)NC(=O)[C@H](CC(C)C)[C@H](CSc1cccs1)C(=O)NO [BB-94, Batimastat]
Mouse uPA
  upregulation of mouse uPA in the tumours: ~2 fold

## CNC(=O)[C@H](Cc1c[nH]c2ccccc12)NC(=O)[C@@H](CC(=O)NO)CC(C)C [Galardin™]
plg^+/+ mice [1]
  Pregnancies: 3
plg^+/+ mice [2]; Galardin 2.5 mg i.p. once daily
  wounds healed after 38 days: 22%
[3]
  Ki: in the millimolar range
plg^+/+ mice [4]; [13]
  Gland 4 Weight: 188 mg and 198 mg and 146 mg
plg^+/+ mice [4]; [14]
  Mean Weight (gland 4): 177 mg
plg^+/+ mice [4]; control = plg^+/+ untreated
  % Control (gland weight): 162%
plg^−/− mice [5]; [13]
  Gland 4 Weight: 262 mg and 342 mg and 251 mg
plg^−/− mice [5]; [14]
  Mean Weight (gland 4): 285 mg
plg^−/− mice [5]; control = plg^+/+ untreated
  % Control (gland weight): 262%
Lewis lung carcinoma; 10 mg TA and 13,000 KIU AP per day i.p., 1.8 mg Galardin per day per mouse
  survival of the tumour-bearing mice: considerable prolongation
Lewis lung carcinoma; treatment stopped day 50
  long-term survival (mice per group of 17): no long-term survivors
wild-type mice
  keratinocyte migration distance (mean value±standard deviation): 268±80 arbitrary units
Plg-deficient mice
  keratinocyte migration distance (mean value±standard deviation): 208±60 arbitrary units
stromelysin-1 (MMP-3)
  pKi: 7.52
[6]
  expression of gelatinase A and stromelysin-3 mRNA in granulation tissue fibroblasts: upregulated
  expression of gelatinase B, collagenase-3 and stromelysin-1 mRNA in leading-edge keratinocytes: dramatically upregulated
plasmin
  Ki: in the millimolar range
plg^−/− mice [7]; 2.5 mg i.p. daily day 3.5 to 18.5
  % pregnant: 25%
plg^−/− mice [7]; 2.5 mg i.p. daily day 3.5 to 18.5, 4 mice
  Pregnancies: 1*
plg^−/− mice [7]; 2.5 mg i.p. daily day 3.5 to 18.5, listed as G
  % pregnant: 25* %
plg^−/− mice [8]
  healed wounds 38 days after wounding: none
  healed wounds after 80 days: none
plg^+/+ mice [9]
  production of offspring: unaffected
plg^+/+ mice [10]; 90 mg/kg i.p. daily, fifth day post-partum
  Mean Weight ± SD (uterus): 221 ± 65.3 mg
plg^+/+ mice [10]; 90 mg/kg i.p. daily, fifth day post-partum, single animals, 90 mg/kg
  Weight (uterus): 288 mg and 285 mg and 135 mg and 206 mg and 192 mg
plg^+/+ mice [10]; 90 mg/kg, p=0.158
  change in 5 day postpartum uterine weight versus control: did not produce a significant increase
plg^−/− mice [11]; Plg^−/− mice, 90 mg/kg, p=0.012
  change in 5 day postpartum uterine weight versus control: significant increase
plg^−/− mice [11]; plg^−/− mice, 90 mg/kg i.p. daily, fifth day post-partum
  Mean Weight ± SD (uterus): 337 ± 70.9 mg
plg^−/− mice [11]; plg^−/− mice, 90 mg/kg i.p. daily, fifth day post-partum, single animals, 90 mg/kg
  Weight (uterus): 311 mg and 408 mg and 236 mg and 328 mg and 401 mg

## NC[C@H]1CC[C@H](C(=O)O)CC1 [tranexamic acid]
plg^+/+ mice [2]
  time after which all wounds were healed: 17 days

## aprotinin
[12]; mouse plasma
  half life: approx. 3 h
[12]; mouse
  plasma level: approx. 25 μg/ml
plg^+/+ mice [2]
  time after which all wounds were healed: 24 days
